Measured values: PubChem BioAssay (NCI)
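Cells were grown in 96-well plates and exposed to each compound for 48 hours at five concentrations; endpoints were interpolated linearly between bracketing concentrations, or set to the highest concentration if not reached. TGI is the concentration that stops growth completely.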

What was measured:
Test in all cases: NCI-60 cell line screen, 48 h
A549 NSCLC = tested on: A549 NSCLC
ACHN renal = tested on: ACHN renal
HOP-92 NSCLC = tested on: HOP-92 NSCLC
KM12 colon = tested on: KM12 colon
M14 melanoma = tested on: M14 melanoma
MOLT-4 leukemia = tested on: MOLT-4 leukemia
NCI-H226 lung = tested on: NCI-H226 lung
SNB-75 CNS = tested on: SNB-75 CNS
SW-620 colon = tested on: SW-620 colon
TK-10 renal = tested on: TK-10 renal
U251 CNS = tested on: U251 CNS
UACC-62 melanoma = tested on: UACC-62 melanoma
MCF7 breast = tested on: MCF7 breast
MDA-MB-231 breast = tested on: MDA-MB-231 breast
MDA-N = tested on: MDA-N
PC-3 prostate = tested on: PC-3 prostate
T-47D breast = tested on: T-47D breast
A498 renal = tested on: A498 renal
BT-549 breast = tested on: BT-549 breast
MDA-MB-435 = tested on: MDA-MB-435

SMILES | TGI (A549 NSCLC) [µM] | TGI (ACHN renal) [µM] | TGI (HOP-92 NSCLC) [µM] | TGI (KM12 colon) [µM] | TGI (M14 melanoma) [µM] | TGI (MOLT-4 leukemia) [µM] | TGI (NCI-H226 lung) [µM] | TGI (SNB-75 CNS) [µM] | TGI (SW-620 colon) [µM] | TGI (TK-10 renal) [µM] | TGI (U251 CNS) [µM] | TGI (UACC-62 melanoma) [µM] | TGI (MCF7 breast) [µM] | TGI (MDA-MB-231 breast) [µM] | TGI (MDA-N) [µM] | TGI (PC-3 prostate) [µM] | TGI (T-47D breast) [µM] | TGI (A498 renal) [µM] | TGI (BT-549 breast) [µM] | TGI (MDA-MB-435) [µM]
COC1CC(n2cnc3c(N)ncnc32)OC1CO (centres undefined) | > 100 | > 100 | > 100 | > 100 | > 100 | > 100 | > 100 | > 100 | > 100 | > 100 | > 100 | > 100 |  |  |  |  |  |  |  | 
CN1CN(c2ccccc2)C2(CCN(CCCC(=O)c3cccs3)CC2)C1=O | > 100 | > 100 |  | > 100 | > 100 | > 100 | > 100 | > 100 | > 100 | 87.6 | > 100 | > 100 | 72.6 | > 100 | > 100 | > 100 | > 100 |  |  | 
CC(=O)O[C@]12CCC[C@H]1C1(O)C(O)CCC[C@H]12 (some centres undefined) | > 100 | > 100 |  | > 100 | > 100 | > 100 | > 100 | > 100 | > 100 | > 100 | > 100 | > 100 |  |  |  |  |  |  |  | 
CC(CCc1ccc2c(c1)c(=N)c1ccc(N)cc1n2O)CC(C)(C)C (centres undefined) | 3.22 | 3.14 |  | 3.51 | 3.18 |  |  |  | 3.07 | 3.29 | 2.67 | 2.79 |  |  |  |  |  | 3.51 |  | 
CC(Oc1ccc(OCC2CCCCC2)cc1)C(=O)N(CCO)CCO (centres undefined) | > 100 | > 100 |  | > 100 | > 100 | > 100 | > 100 | > 100 |  | > 100 | > 100 | > 100 |  |  |  |  |  | > 100 |  | 
C=C(N=[N+]=[N-])c1cn(C2CC(O)C(CO)O2)c(=O)[nH]c1=O (centres undefined) | > 100 | > 100 | > 100 | > 100 | > 100 | > 100 | > 100 | > 100 | > 100 | > 100 | > 100 | > 100 |  |  |  |  |  |  |  | 
Cn1c(=O)nc2n(-c3ccc(Cl)cc3Cl)c3ccccc3nc-2c1=O | 13.3 |  | 9.24 | 15.8 | 4.58 | 35.7 |  |  |  | 54.2 | 19 | 6.16 |  |  |  |  |  |  |  | 
Cc1ccc(-n2cnc3c(N/N=C4\SCC(=O)N4c4ccccc4)ncnc32)cc1 | 29.6 | 18.6 | 11.3 | 7.88 | 13.4 | 5.48 | 20.4 |  | 16.5 | 14.3 | 16.2 | 17.2 |  | 10.5 |  | 17.8 | 18.7 | 27.2 | 14.1 | 13.3
CC1=CCS(=O)(=O)C1C(O)C1=C(C)CCCC1(C)C (centres undefined) | > 100 | > 100 |  | > 100 | > 100 | > 100 | > 100 | > 100 | > 100 | > 100 | > 100 | > 100 | > 100 | > 100 | > 100 | > 100 | > 100 | > 100 |  | > 100
